Data published in PMC13298843, “Substituent size versus metal binding of inhibitors with variants of influenza endonuclease^” (Journal of inorganic biochemistry, 2025).
Like-named read-outs stand apart in the source and are kept apart here.

Legend:
[1] = assay type: physicochemical; settings: at 1000 μM in DSF buffer with 4 % DMSO
[2] = biological target: WT enzyme (PAN endonuclease); parameters: method as in PMID 31536340; settings: FRET-based assay, cited from earlier work
influenza = settings: oral monotherapy taken at time of diagnosis; cited from earlier work
[3] = at edge of limit of detection, read-out: IC50 values
[4] = read-out: pIC50 values (converted)

Compound	IC50 [2, 3] [nM]	IC50 [2, 4] [nM]	further results
O=C(O)c1[nH]c(-c2ccccc2Oc2ccccc2)cc(=O)c1O [Compound 4]	~3	–	solubility [1]: poorly soluble
COC(=O)OCOc1c2n(ccc1=O)N([C@@H]1c3ccccc3SCc3c1ccc(F)c3F)[C@@H]1COCCN1C2=O [BXM, Baloxavir marboxil]	–	–	time to reduce fever (average) (influenza): 24 h
Cc1ccccc1-c1cc(=O)c(O)c(C(=O)O)[nH]1 [Compound 1]	–	< 2	–
CCc1ccccc1-c1cc(=O)c(O)c(C(=O)O)[nH]1 [Compound 2]	–	< 2	–
CSc1ccccc1-c1cc(=O)c(O)c(C(=O)O)[nH]1 [Compound 3]	~3	–	–
